Measured values: patent US10239871B2, “Compounds and methods for regulating integrins” (ADHAERE PHARMACEUTICALS, INC., priority 2012, dated 2019)

Tests used:
[1] = Solubility of LA1 in oral vehicle formulations and simulated biological fluids (LC-MS); type: physicochemical
Description: Pilot oral vehicle evaluation. […] Subsequently, re-dispersability of LA1 was tested using two simulated biological fluids—simulated gastric fluid (SGF) and Fasted State Simulated […] Fluid (FaSSIF).

[2] = target: T1, CD11b/CD18 (Homo sapiens, UniProt P11215); assay: Immunofluorescence microscopy of CD11b/CD18 clustering on K562 WT cells; type: cell-based; parameters: K562 cells stably transfected with plasmid encoding wild-type integrin CD11b/CD18; expressed in transfected cells
Description: To visualize changes upon ligand binding, fibrinogen (50 μg/mL) was also added to the cell suspension media in a second set of incubations. The cells were fixed in suspension and incubated with mAb 184, which is specific for CD11b/CD18, followed by Alexa Fluor 488-conjugated goat antibody against mouse Ig (Sigma). Fluorescence images were recorded with a Leica DMI16000 deconvolution microscope using an HCX APO 40×/0.75 DRY objective with a DCF360FX camera and with Leica LAS-AF software. A 3-dimensional representation of CD11b/CD18 fluorescence intensity and the analysis of the number of CD11b/CD18 clusters per cell was performed using ImageJ software as described. Clustering determination was carried out by counting individual fluorescent peaks that were projected from the basal to the apical side of the cell and were at least 50% above the base line levels. The images presented are representative of at least 20 cells analyzed for each condition from at least three independent experiments.
Therefore, to investigate, a combination of confocal microscopy (to study clustering) and western blotting assays (to study intracellular signaling) using K562 WT cells were used. First, CD11b/CD18 cell-surface distribution and macro clustering was studied under various conditions using confocal microscopy. K562 WT cells in suspension were incubated with various agonists, fixed with paraformaldehyde and the surface expressed CD11b/CD18 was fluorescently stained with anti-CD11b/CD18 mAb 1B4. […] The fluorescence images shown are representative of three independent experiments. […] Also shown below each image is a 3D representation of CD11b fluorescence intensity for selected cells, analyzed in ImageJ In FIG. 5B, data shown are mean±SEM from >40 cells per condition and from >3 independent experiments for each condition. ***p<0.0001, ns=not significant.

[3] = target: T1, CD11b/CD18; assay: Flow chamber assay (adhesion under wall shear stress); type: cell-based; parameters: expressed in transfected cells; host or cells: 293T cells, transient transfection; conditions: 25 μM LA1, unlike Mn2+
Description: The flow chamber assay was performed as described in literature (Chen, J. F., Salas, A. & Springer, T. A. Bistable regulation of integrin adhesiveness by a bipolar metal ion cluster. Nat. Struct. Biol. 10, 995-1001 (2003)). A polystyrene Petri dish was coated with a 5 mm diameter, 20 μL spot of 20 μg/mL purified h-ICAM-1/Fc (R&D) or 20 μg/mL Fibrinogen in coating buffer (PBS, 10 mM NaHCO3, pH 9.0) for 1 hour at 37° C., followed by 2% BSA in coating buffer for 1 hour at 37° C. to block nonspecific binding sites. Transient transfected 293T cells were washed twice with wash buffer (20 mM Hepes, 150 mM NaCl, pH 7.4, 5 mM EDTA/0.5% BSA), subsequently once with HBS containing 1 mM Ca^2+ and 1 mM Mg^2+ (HBS^++), and finally resuspended at the concentration of 5×10^6/mL in HBS^++ ([…], 0.5% BSA) and kept on ice. Cells were incubated in 2% DMSO with or without 25 μM LA1 at 37° C. for 30 minutes. And subsequently infused in the flow chamber using a Harvard apparatus programmable syringe pump. Cells were allowed to settle down for 5 minutes, and accumulate for 30 seconds at 0.3 dyn/cm^2 and 10 seconds at 0.4 dyn/cm^2. […] The number of cells remaining abound at the end of each 10-sec interval were determined. Rolling velocity at each shear stress was calculated from the average distance traveled by rolling cells in 3 seconds. […]

[4] = tested on: MyD88; assay: MyD88 levels in THP-1 cells; type: cell-based, human
Excerpt: TLR4-mediated signaling requires participation of the adaptor protein MyD88 (43) and MyD88−/− mice are protected from kidney damage following IRI. TLR4 activation leads to the binding and stabilization of adaptor protein MyD88, which recruits downstream kinases to initiate Nf-kB-mediated pro-inflammatory signaling. Subsequently, TLR4 signaling induces a negative feedback loop by endogenous activation of CD11b/CD18, which activates Syk to phosphorylate MyD88, tagging it for ubiquitin-mediated destruction. […] A pilot experiment was carried out to validate this hypothesis by determining the levels of MyD88 in human monocytic THP-1 cells.

[5] = tested on: SD rats; assay: Subacute toxicity assessment in rats; type: in vivo, rat
Description: LA1 is non-toxic in vivo. A subacute toxicity assessment of LA1 in rats was performed.
LA1 had no effect on the daily food intake or growth.
Next, a subacute toxicity assessment was performed of LA1 in rats in the Comparative Pathology core. […] LA1 had no effect on the daily food intake or growth.

SMILES: O=C(O)c1ccc(-c2ccc(/C=C3\SC(=S)N(Cc4ccccc4)C3=O)o2)cc1 [LA1]
- solubility in vehicle formulation ([1]; 10% Tween80, 20% ETPGS and 30% Captisol, 10 mg/mL slurry, Mg-salt): 3000 to 4000 µg/mL
- solubility on re-dispersion in simulated biological fluids ([1]; SGF and FaSSIF, 10% Tween80 formulation): ~0.15 mg/mL
- CD11b/CD18 macro clustering on cell surface ([2]; absence of ligand fibrinogen, 45 minutes at 37° C.): did not induce any significant CD11b/CD18 macro clustering
- CD11b/CD18 macro clustering on cell surface ([2]; presence of fibrinogen 50 μg/mL): did so in the presence of fibrinogen
- adhesive behavior of CD11b/CD18 transfectants under wall shear stress (conformation induced) [3]: induces priming of CD11b/CD18 and converts it into intermediate conformation
- time to complete degradation of MyD88 ([4]; LA1 alone, absence of LPS): less than 2 hours
- MyD88 degradation ([4]; co-treatment with LPS, THP-1 cells): much faster degradation of MyD88
- Haematological constants ([5]; IP ~3 mg/kg/d for 21 d): on par with those of controls
- biochemical measurements in serum and liver (enzyme levels, serum constituents) ([5]; IP ~3 mg/kg/d for 21 d): no appreciable changes
- daily food intake or growth ([5]; IP ~3 mg/kg/d for 21 d): no effect
- overt toxicity or mortality ([5]; IP ~3 mg/kg/d for 21 d, SD rats of both sexes): failed to induce any overt toxicity or mortality
- relative organ weights of vital organs and their histoarchitecture ([5]; autopsy, lung, heart, spleen, liver, kidney): no significant alterations
